Results as given in the NIST ThermoML archive (doi:10.1021/je4001894).
± gives the expanded uncertainty stated by the source.

Experiment: activity coefficient (dimensionless); of the first substance listed, at infinite dilution; xn = mol fraction of the nth substance listed
Details: 101 kPa, Liquid, Chromatography, x1 = 0

Compound: CCCCCCCCCC [decane] + CCCC[N+]1(C)CCCC1.O=S(=O)([N-]S(=O)(=O)C(F)(F)F)C(F)(F)F
- activity coefficient (323.15 K): 54.3 ± 3.7
- activity coefficient (333.15 K): 49 ± 3.4
- activity coefficient (343.15 K): 44.2 ± 3

Compound: CO [methanol] + CCCC[N+]1(C)CCCC1.O=S(=O)([N-]S(=O)(=O)C(F)(F)F)C(F)(F)F
- activity coefficient (323.15 K): 1.4 ± 0.09
- activity coefficient (333.15 K): 1.28 ± 0.08
- activity coefficient (343.15 K): 1.18 ± 0.08

Compound: Cc1ccccc1C [1,2-dimethylbenzene] + CCCC[N+]1(C)CCCC1.O=S(=O)([N-]S(=O)(=O)C(F)(F)F)C(F)(F)F
- activity coefficient (323.15 K): 1.61 ± 0.11
- activity coefficient (333.15 K): 1.64 ± 0.11
- activity coefficient (343.15 K): 1.66 ± 0.11

Compound: C#CCCCCC [1-heptyne] + CCCC[N+]1(C)CCCC1.O=S(=O)([N-]S(=O)(=O)C(F)(F)F)C(F)(F)F
- activity coefficient (323.15 K): 3.98 ± 0.27
- activity coefficient (333.15 K): 3.98 ± 0.27
- activity coefficient (343.15 K): 3.94 ± 0.27

Compound: CCCCO [butan-1-ol] + CCC[N+]1(C)CCCC1.O=S(=O)([N-]S(=O)(=O)C(F)(F)F)C(F)(F)F
- activity coefficient (323.15 K): 2.79 ± 0.19
- activity coefficient (333.15 K): 2.35 ± 0.16
- activity coefficient (343.15 K): 2.27 ± 0.15

Compound: CC(C)CC(C)(C)C [2,2,4-trimethylpentane] + CCC[N+]1(C)CCCC1.O=S(=O)([N-]S(=O)(=O)C(F)(F)F)C(F)(F)F
- activity coefficient (323.15 K): 22.5 ± 1.5
- activity coefficient (333.15 K): 22 ± 1.5
- activity coefficient (343.15 K): 21.6 ± 1.5

Compound: CCCO [propan-1-ol] + CCCC[N+]1(C)CCCC1.O=S(=O)([N-]S(=O)(=O)C(F)(F)F)C(F)(F)F
- activity coefficient (323.15 K): 2.07 ± 0.14
- activity coefficient (333.15 K): 1.87 ± 0.13
- activity coefficient (343.15 K): 1.68 ± 0.11

Compound: CC(C)O [propan-2-ol] + CCCC[N+]1(C)CCCC1.O=S(=O)([N-]S(=O)(=O)C(F)(F)F)C(F)(F)F
- activity coefficient (323.15 K): 1.9 ± 0.13
- activity coefficient (333.15 K): 1.72 ± 0.12
- activity coefficient (343.15 K): 1.57 ± 0.1

Compound: CCCCCCCCCCC [undecane] + CCC[N+]1(C)CCCC1.O=S(=O)([N-]S(=O)(=O)C(F)(F)F)C(F)(F)F
- activity coefficient (323.15 K): 108 ± 7.4
- activity coefficient (333.15 K): 92.8 ± 6.4
- activity coefficient (343.15 K): 85.1 ± 5.8

Compound: CCC[N+](=O)[O-] [1-nitropropane] + CCC[N+]1(C)CCCC1.O=S(=O)([N-]S(=O)(=O)C(F)(F)F)C(F)(F)F
- activity coefficient (323.15 K): 0.77 ± 0.05
- activity coefficient (333.15 K): 0.77 ± 0.05
- activity coefficient (343.15 K): 0.77 ± 0.05

Compound: CCC[N+](=O)[O-] [1-nitropropane] + CCCC[N+]1(C)CCCC1.O=S(=O)([N-]S(=O)(=O)C(F)(F)F)C(F)(F)F
- activity coefficient (323.15 K): 0.74 ± 0.05
- activity coefficient (333.15 K): 0.73 ± 0.05
- activity coefficient (343.15 K): 0.73 ± 0.05

Compound: CCC(=O)CC [pentan-3-one] + CCCC[N+]1(C)CCCC1.O=S(=O)([N-]S(=O)(=O)C(F)(F)F)C(F)(F)F
- activity coefficient (323.15 K): 0.73 ± 0.05
- activity coefficient (333.15 K): 0.75 ± 0.05
- activity coefficient (343.15 K): 0.77 ± 0.05

Compound: CC(C)CO [2-methyl-1-propanol] + CCCC[N+]1(C)CCCC1.O=S(=O)([N-]S(=O)(=O)C(F)(F)F)C(F)(F)F
- activity coefficient (323.15 K): 2.37 ± 0.16
- activity coefficient (333.15 K): 2.12 ± 0.14
- activity coefficient (343.15 K): 1.92 ± 0.13

Compound: Cc1cccc(C)c1 [1,3-dimethylbenzene] + CCC[N+]1(C)CCCC1.O=S(=O)([N-]S(=O)(=O)C(F)(F)F)C(F)(F)F
- activity coefficient (323.15 K): 1.97 ± 0.13
- activity coefficient (333.15 K): 1.99 ± 0.14
- activity coefficient (343.15 K): 2.05 ± 0.14

Compound: CCC(C)=O [butanone] + CCC[N+]1(C)CCCC1.O=S(=O)([N-]S(=O)(=O)C(F)(F)F)C(F)(F)F
- activity coefficient (323.15 K): 0.57 ± 0.04
- activity coefficient (333.15 K): 0.58 ± 0.04
- activity coefficient (343.15 K): 0.64 ± 0.04

Compound: C[N+](=O)[O-] [nitromethane] + CCCC[N+]1(C)CCCC1.O=S(=O)([N-]S(=O)(=O)C(F)(F)F)C(F)(F)F
- activity coefficient (323.15 K): 0.65 ± 0.04
- activity coefficient (333.15 K): 0.58 ± 0.04
- activity coefficient (343.15 K): 0.57 ± 0.04

Compound: c1ccccc1 [benzene] + CCC[N+]1(C)CCCC1.O=S(=O)([N-]S(=O)(=O)C(F)(F)F)C(F)(F)F
- activity coefficient (323.15 K): 0.99 ± 0.06
- activity coefficient (333.15 K): 1.01 ± 0.06
- activity coefficient (343.15 K): 1.03 ± 0.06

Compound: ClCCl [dichloromethane] + CCC[N+]1(C)CCCC1.O=S(=O)([N-]S(=O)(=O)C(F)(F)F)C(F)(F)F
- activity coefficient (323.15 K): 0.66 ± 0.05
- activity coefficient (333.15 K): 0.72 ± 0.05
- activity coefficient (343.15 K): 0.78 ± 0.05

Compound: CCCCCC [hexane] + CCCC[N+]1(C)CCCC1.O=S(=O)([N-]S(=O)(=O)C(F)(F)F)C(F)(F)F
- activity coefficient (323.15 K): 13.9 ± 0.95
- activity coefficient (333.15 K): 13.6 ± 0.93
- activity coefficient (343.15 K): 12.6 ± 0.86

Compound: CCCCO [butan-1-ol] + CCCC[N+]1(C)CCCC1.O=S(=O)([N-]S(=O)(=O)C(F)(F)F)C(F)(F)F
- activity coefficient (323.15 K): 2.59 ± 0.18
- activity coefficient (333.15 K): 2.32 ± 0.16
- activity coefficient (343.15 K): 2.08 ± 0.14

Compound: c1ccncc1 [pyridine] + CCCC[N+]1(C)CCCC1.O=S(=O)([N-]S(=O)(=O)C(F)(F)F)C(F)(F)F
- activity coefficient (323.15 K): 0.59 ± 0.04
- activity coefficient (333.15 K): 0.59 ± 0.04
- activity coefficient (343.15 K): 0.59 ± 0.04

Compound: Cc1ccc(C)cc1 [1,4-dimethylbenzene] + CCC[N+]1(C)CCCC1.O=S(=O)([N-]S(=O)(=O)C(F)(F)F)C(F)(F)F
- activity coefficient (323.15 K): 1.96 ± 0.13
- activity coefficient (333.15 K): 2 ± 0.14
- activity coefficient (343.15 K): 2.03 ± 0.14

Compound: ClC(Cl)(Cl)Cl [tetrachloromethane] + CCC[N+]1(C)CCCC1.O=S(=O)([N-]S(=O)(=O)C(F)(F)F)C(F)(F)F
- activity coefficient (323.15 K): 2.55 ± 0.17
- activity coefficient (333.15 K): 2.62 ± 0.18
- activity coefficient (343.15 K): 2.64 ± 0.18
